Test results taken from patent US20040106150A1, “Inverse labeling method for the rapid identification of marker/target proteins” (priority 2000, published 2004).
Entries after “also recorded” stand apart in the source; their conditions may differ.

How the values were obtained:
tumor tissue DU145 = test: Inverse labeling-MS phosphorylation analysis of tissue lysate of mouse tumor xenograft (tumor tissue DU145), in vivo study; set-up: Change (treated/control), % down: concentration or dose not given beside the values; conditions: for Change (treated/control) / Change (treated/control), % down: tumor tissue, 1 hour treatment
Protocol: The phosphoproteome mapping method is further tested/applied to an in vivo study of the Raf inhibitor, BPMI (1-hour treatment) in the analysis of tissue lysate of mouse tumor xenograft. […] Although the usual 1 mg of lysate is processed and IMAC enriched, considering the overwhelming blood protein contamination, the actual amount of tissue lysate proteins in the sample is a lot less. For that reason, only 0.05% β-casein is spiked into each tissue lysate sample as internal standard. The methyl esterification/IMAC procedure is successful in removing the blood contamination from the tissue samples. As shown in FIG. 15 (B), inverse labeling-MS analysis after IMAC enrichment clearly detects the down-regulation of Ser^25 phosphorylation of oncoprotein 18, confirming the finding of the cellular studies. Additional changes in phosphorylation are also detected which includes oncogene EMS1, mouse fetuin and Epithelial-cadherin (see Table 3).

HCT116 cells = test: Inverse labeling-MS phosphorylation analysis of HCT116 cell lysate treated with Raf inhibitor; assay type: cell-based, Human; conditions: for Change (treated/control) / Change (treated/control), % down: HCT116 cells, 20 μM, 1.5 hours vs DMSO control
Protocol: Human colorectal cell line HCT116 cells are grown in 6-well plates. Prior to harvesting, the cells are treated with 20 μM of the Raf inhibitor BPMI and DMSO control for 1.5 hours, respectively. Cells are then rinsed with PBS, and lysed for 5 mintues at 4° C. in Doriano lysis buffer with 100 μg/mL Perfabloc/2 μg/mL aprotinin/2 μg/mL leupeptin/1 mM NaVO4/10 mM NaF. The supernatant of the lysates are collected after centrifugation at 3,000 rpm for 5 minutes. The protein concentration is determined using Bio-Rad reagent, and the lysates are frozen at −80° C. prior to further processing and analysis.
One μL of RNase A (20 mg/mL, Sigma, St Louis, Mo.) and 1 μL of RNase T1 (10 units/mL, Invitrogen, Carlsbad, Calif.) are added to each 1 mL of lysates (total 3 mg of HCT116-DMSO control and 3 mg of HCT116-BPMI, respectively), and incubated at 37° C. for half an hour to degrade RNAs. Proteins are denatured using 6 M guanidine HCl, followed by reduction with 20 mM 1,4-dithio-DL-threitol (DTT) at 58° C. for 40 minutes and alkylation with 40 mM iodoacetamide at room temperature for 30 minutes in the dark. Each protein solution is transferred to a Slide-A-Lyzer ( 10,000 MW cutoff, Pierce, Rockford, Ill.) dialysis cassette and dialyzed against 2 to 0 M urea/50 mM ammonium bicarbonate to remove small molecule impurities and buffer exchange to 50 mM ammonium bicarbonate. Proteolysis is carried out using modified, sequencing grade trypsin (Promega, Madison, Wis.) at a 1:200 trypsin-to-protein ratio (wt:wt) in 50 mM ammonium bicarbonate at 37° C. overnight.
The peptide digests are filtered through Centricon Filters (10,000 MW cutoff, Millipore, Bedford, Mass.) to remove large molecule impurities including detergents. Flow-through (peptides) is collected. Solvent and ammonium bicarbonate are subsequently removed by SpeedVac drying.
d0- or d3-methanolic HCl (2 M) (methyl esterification reagent) is prepared by adding 160 μL of acetyl chloride to 1 mL of anhydrous d0-methyl alcohol or d3-methyl d-alcohol drop wise while stirring. After 10 minutes, 1 mL of the methyl esterification reagent is added to 1.5 mg of lyophilized peptide mixture. The reaction is performed in parallel to two identical aliquots for every sample, one using d0-reagent and one using d3-reagent, respectively. The reaction is allowed to proceed at room temperature for 30 minutes. The excess reagents are removed by SpeedVac drying. Subsequently the peptide mixtures are reconstituted with water. The inverse labeling is achieved by mixing d0-control with d3-treated (BPMI) and d3-control with d0-treated.
Enrichment of phosphopeptides is performed on a 2.1×30 mm IMAC column (POROS 20 MC, Applied Biosystems, Foster City, Calif.). Briefly, the column is washed with water, 100 mM EDTA in 1 M NaCl, followed by water and 1% acetic acid. The column is then activated with 100 mM FeCl3. The SpeedVac dried, 1 mg of the inversely-labeled methyl esterified peptide mixture (500 μg each form of d0 and d3) is dissolved in 1% acetic acid in 50% acetonitrile/water, and loaded onto iron-activated IMAC column. The unbound peptides are removed by washing with 1% acetic acid in 50% acetonitrile/water ([…]). The bound phosphopeptides are eluted with 2% ammonium hydroxide in 50% acetonitrile/water. Acetic acid is added to neutralize the eluent prior to SpeedVac drying. The phosphopeptide mixture is reconstituted with 0.1% formic acid and analyzed using capillary LC/MS, as described below.
An Ultimate capillary/nano HPLC system (LC Packings, San Francisco, Calif.) with a Swichos micro column-switching module (LC Packings, San Francisco, Calif.) is used for analysis. Separation is carried out on a 0.18×50 mm capillary column, packed with 3 μm C18 stationary phase of 300-Å pore size (PepMap, LC Packings, San Francisco, Calif.), operating at a flow rate of 2 μL/min. Mobile phase A consists of 0.1% (v/v) formic acid in water and mobile phase B of 0. 1% (v/v) formic acid in acetonitrile. […]

[1] = phosphopeptide ASGQAFELILpSPR, Oncoprotein 18
[2] = phosphopeptide LPpSSPVYEDAASFK, Oncogene EMS1
[3] = phosphopeptide MRDWVIPPIpSCPENEK, Epithelial-cadherin (mouse/human)
[4] = phosphopeptide SKESVPEFPLpSPPK, Oncoprotein 18
[5] = phosphopeptide VoxMHTQCHSTPDpSAEDVR, Mouse fetuin
[6] = phosphopeptide pTQTPPVpSPAPQPTEER, Oncogene EMS1
[7] = phosphopeptide IEpSPKLER, Heat-shock 110 kD protein
[8] = phosphopeptide RLpSPSApSPPR, Ser/Arg-related nuclear matrix protein

CC(C)(C)c1ccc(Nc2ncc(Cc3ccncc3)c3ccccc23)cc1 [BPMI, 1-(4-t-butylanilino)-4-[(pyridin-4-yl)-methyl]-isoquinoline]
Ser25 phosphorylation of oncoprotein 18 (OP18) (tumor tissue DU145; in vivo, tumor tissue DU145, 1-hour treatment): down-regulation
Change (treated/control) (tumor tissue DU145; [1]): 0.4
Change (treated/control), % down (tumor tissue DU145; [1]): 60%
Change (treated/control) (tumor tissue DU145; [2]): 0.7
Change (treated/control), % down (tumor tissue DU145; [2]): 30%
Change (treated/control) (tumor tissue DU145; [3]): 0.5
Change (treated/control), % down (tumor tissue DU145; [3]): 50%
Change (treated/control) (tumor tissue DU145; [4]): 0.8
Change (treated/control), % down (tumor tissue DU145; [4]): 20%
Change (treated/control) (tumor tissue DU145; [5]): 0.6
Change (treated/control), % down (tumor tissue DU145; [5]): 40%
Change (treated/control) (tumor tissue DU145; [6]): 0.6
Change (treated/control), % down (tumor tissue DU145; [6]): 40%
OP18 (oncoprotein 18) Ser25 phosphorylation (HCT116 cells; HCT116 cell lysate, treated vs control): significantly down-regulated; also recorded: Down-regulation
Change (treated/control) (HCT116 cells; [1]): 0.4
Change (treated/control), % down (HCT116 cells; [1]): 60%
Change (treated/control) (HCT116 cells; [7]): 0.7
Change (treated/control), % down (HCT116 cells; [7]): 30%
Change (treated/control) (HCT116 cells; [2]): 0.8
Change (treated/control), % down (HCT116 cells; [2]): 20%
Change (treated/control) (HCT116 cells; [8]): 0.7
Change (treated/control), % down (HCT116 cells; [8]): 30%
Change (treated/control) (HCT116 cells; [4]): 0.6
Change (treated/control), % down (HCT116 cells; [4]): 40%
Change (treated/control) (HCT116 cells; [6]): 0.8
Change (treated/control), % down (HCT116 cells; [6]): 20%
